“Also recorded” adds a separate entry of the source.
Columns and labels:
[1] = tested on: recombinant human Dicer processing pre-miR16-1; assay: Dicer activity assay in the presence of peptide, substrate pre-miR16-1; format: biochemical; conditions: 400 nM peptide, pre-miR16-1 substrate, FIG. 2
Method: (§1) Two types of pre-miRNA (pre-let7a-1, pre-miR16-1) used as the substrate for the Dicer enzyme activity assay was ordered and manufactured by ST Pharm Co., Ltd (FIG. 1). For Dicer activity assay, the 5′ end of the synthesized pre-miRNA was labeled with ^32p isotope. Two pmole of each pre-miRNA was isotope labeled with […] of [g-^32P]ATP (New England Biolabs) using 10 units of T4 polynucleotide kinase (New England Biolabs). Total volume of 10 μl was isotope labeled for 1 hr at 37° C. The isotope labeled RNA obtained after the reaction was purified using G-25 Sephadex column (Sigma). The purified substrate was used for measuring Dicer enzyme activity. Total reaction mixture of 30 μl containing 1 nM of isotope labeled pre-miRNA and 0.001 u/μl of recombinant human Dicer (Genlantis, CA, USA) were incubated at 37° C. in 24 mM 4-(2-hydroxyethyl)-1-piperazineethanesulfonic acid, HEPES) buffer system containing 200 mM NaCl, 0.04 mM EDTA, 1 mM ATP and 2.5 mM MgCl2(pH 8.0). After reacting for 0, 10, 30, 60 or 120 min in the presence of 400 nM concentration of 2b or 2c peptide, 3 μl of each reaction mixture was mixed with 5 μl of RNA gel loading buffer {95% formamide, 10 mM ethylenediaminetetraacetic acid (EDTA), 0.05% FF (xylene cyanol FF)} and incubated for 5 min at 65° C. The amount of the reaction product was determined by gel running in 15% polyacrylamide gel containing 7M urea, and then the initial reaction velocity (V0) from each reaction was compared. The initial reaction velocity (V0) of the enzyme is the reaction velocity of the initial linear time (until 30 min). Each initial velocity was normalized with the initial velocity from each substrate condition without peptide treatment. The initial reaction velocity of Dicer for pre-let7a-1 and pre-miR16-1 without peptide treatment were […] and 0.018 fmole/min, respectively. Each of the initial reaction velocity is a mean data of more than 3 measurements, and the standard deviation is shown as error bars.

[2] = tested on: recombinant human Dicer processing pre-let7a-1; assay: Dicer activity assay in the presence of peptide, substrate pre-let7a-1; format: biochemical; conditions: for initial reaction velocity (V0) of Dicer, normalized to no peptide: 400 nM peptide, pre-let7a-1 substrate, FIG. 2; for initial reaction velocity of Dicer: FIG. 3
Method: as §1, with “[…],” for “60 or 120 min in the presence of 400 nM concentration of 2b or 2c peptide,”

[3] = tested on: mature let7a-1 in HCT116 cells; assay: Production of mature miRNA in HCT116 cells by northern blotting; format: cell-based; conditions: 2 μM peptide, 3 hrs, FIG. 4
Method: The HCT116 cell was purchased from American Type Culture Collection (ATCC) and was cultured in RPMI1640 medium at 37° C., under 5% CO2. Total RNA was extracted using Trizol reagent (Invitrogen) according to the manufactures recommended protocol.
The change in RNA amount was analyzed by culturing the cells with 2 μM concentration of peptide 2b or peptide 2c and with lipofectamine.
HCT116 cells were treated with 2 μM of peptide 2b, 2c, 1e or 0.2 μg/ml of doxorubicin for 3 hrs before analyzing the production of mature miRNA in total RNA using northern blotting. The 18S rRNA band intensity was used as the loading control. […] Peptide 1e was used as a negative control. Decade marker (Ambion) and 10˜20 μg of total RNA were separated by using 12.5% polyacrylamide gel containing 7M urea in 20 mM of 3-(N-morpholino)propanesulfonic acid (MOPS)-NaOH(pH 7.0) buffer at 350V for 2 hrs. RNA blotting was performed by chemical cross-linking method. Each of the separated RNA was transferred with the neutral nylon membrane (Hybond NX, Amersham/Pharmacia) and crosslinked to the membrane using 1-ethyl-3-(3-dimethylaminopropyl)carbodiimide (EDC). The membrane was prehybridized with the hybridization buffer (Clontech, CA, USA) containing 50 μl of 10 mg/ml of salmon sperm DNA. Next, the isotope labeled probe DNA which is complementary to the miRNA sequence was hybridized for 2 hrs in the same buffer condition.
The probe was isotope labeled with 25 μCi of [γ-^32P] ATP (New England Biolabs) and 5 units of polynucleotide kinase (New England Biolabs). The probe was ethanol precipitated and dissolved in 50 μl of DEPC treated water for use. The membrane was washed twice for 30 min with 200 ml of wash buffer containing 0.3 M NaCl, 0.03 M sodium citrate and 0.05% sodium dodecyl sulfate (SDS)(pH 7.0), then washed twice for 15 min with 200 ml of wash buffer containing 0.015 M NaCl, 0.0015 M sodium citrate and 0.1% SDS(pH 7.0). The membrane was exposed on the phosphorimager screen and each of the band intensity was detected by FLA-3000 and analyzed by using MultiGauge Ver. 3.0 software (Fuji Photo).

| EC50 ([2]; FIG. 3, concentration dependence, pre-miRNA substrate not named, read-out: EC50 of initial velocity of Dicer in processing pre-miRNA) | Sequence | initial reaction velocity (V0) of Dicer, normalized to no peptide [1] | initial reaction velocity (V0) of Dicer, normalized to no peptide [2] | level of mature let7a-1 [3] | hill slope ([2]; FIG. 3, concentration dependence, pre-miRNA substrate not named) | initial reaction velocity of Dicer ([2]; peptide concentration higher than 100 nM) | initial reaction velocity of Dicer ([2]; peptide concentration higher than 1,000 nM) |
| --- | --- | --- | --- | --- | --- | --- | --- |
|  | WKKLLKLLKKWLKLAG [Peptide 2c, Ac-WKKLLKLLKKWLKLAG, 14] | increase in initial reaction velocity; also recorded: accelerated | increase in initial reaction velocity; also recorded: accelerated | increased |  |  |  |
| 940 nM | WKKLLKWLKKLLKLAG [Peptide 2b, Ac-WKKLLKWLKKLLKLAG, 13] | significantly increased; also recorded: accelerated | highest acceleration; also recorded: profound increase | significant increase | 3.5 | significant increase; also recorded: rapid increase | decrease |

Source: patent US20110230367A1, “Amphiphilic Peptides Promoting Production of Target miRNA and Method of Regulating Production of Target miRNA” (SNU R&DB FOUNDATION, priority 2009, published 2011)
